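How tested: cells in 96-well plates exposed to compound for 48 hours at five concentrations. Abbreviation: GI50, concentration required for 50% inhibition of growth.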 Active and inactive are the calls of the source. Cut-off read from the data, not from the text of the source: active = GI50 up to about 1.1 µM and inactive = higher.
Assays:
Experiment in all cases: NCI tumour cell line growth inhibition, 48 h
786-0 = test system: 786-0
A549 = test system: A549
ACHN = test system: ACHN
CAKI-1 = test system: CAKI-1
CCRF-CEM = test system: CCRF-CEM
COLO 205 = test system: COLO 205
DU-145 = test system: DU-145
EKVX = test system: EKVX
HCC 2998 = test system: HCC 2998
HCT-116 = test system: HCT-116
HCT-15 = test system: HCT-15
HL-60 = test system: HL-60
HOP-62 = test system: HOP-62
HOP-92 = test system: HOP-92
HT-29 = test system: HT-29
Hs-578T = test system: Hs-578T
IGROV-1 = test system: IGROV-1
K562 = test system: K562
KM12 = test system: KM12
LOX IMVI = test system: LOX IMVI
M14 = test system: M14
MCF7 = test system: MCF7
MDA-MB-231 = test system: MDA-MB-231
MDA-MB-435 = test system: MDA-MB-435
MDA-N = test system: MDA-N
MOLT-4 = test system: MOLT-4
Malme-3M = test system: Malme-3M
NCI-H226 = test system: NCI-H226
NCI-H23 = test system: NCI-H23
NCI-H460 = test system: NCI-H460
NCI/ADR-RES = test system: NCI/ADR-RES
OVCAR-3 = test system: OVCAR-3
OVCAR-4 = test system: OVCAR-4
OVCAR-5 = test system: OVCAR-5
OVCAR-8 = test system: OVCAR-8
PC-3 = test system: PC-3
RPMI-8226 = test system: RPMI-8226
SF-268 = test system: SF-268
SF-295 = test system: SF-295
SF-539 = test system: SF-539
SK-MEL-28 = test system: SK-MEL-28
SK-MEL-2 = test system: SK-MEL-2
SK-MEL-5 = test system: SK-MEL-5
SK-OV-3 = test system: SK-OV-3
SN12C = test system: SN12C
SNB-75 = test system: SNB-75
SR = test system: SR
SW-620 = test system: SW-620
T47D = test system: T47D
TK-10 = test system: TK-10
U-251 = test system: U-251
UACC-257 = test system: UACC-257
UACC-62 = test system: UACC-62
UO-31 = test system: UO-31
A498 = test system: A498
BT-549 = test system: BT-549
NCI-H522 = test system: NCI-H522
RXF 393 = test system: RXF 393
SNB-19 = test system: SNB-19

Structure (SMILES): CCOC(=O)C1Cc2ccc(C)cc2C1=O (centres undefined)
- GI50 (786-0): > 100 µM (inactive)
- GI50 (A549): > 100 µM (inactive)
- GI50 (ACHN): > 100 µM (inactive)
- GI50 (CAKI-1): > 100 µM (inactive)
- GI50 (CCRF-CEM): 34 µM (inactive)
- GI50 (COLO 205): > 100 µM (inactive)
- GI50 (DU-145): > 100 µM (inactive)
- GI50 (EKVX): > 100 µM (inactive)
- GI50 (HCC 2998): > 100 µM (inactive)
- GI50 (HCT-116): > 100 µM (inactive)
- GI50 (HCT-15): 61.4 µM
- GI50 (HL-60): 23.6 µM (inactive)
- GI50 (HOP-62): > 100 µM (inactive)
- GI50 (HOP-92): > 100 µM (inactive)
- GI50 (HT-29): > 100 µM (inactive)
- GI50 (Hs-578T): > 100 µM (inactive)
- GI50 (IGROV-1): 70.6 µM (inactive)
- GI50 (K562): 31.4 µM (inactive)
- GI50 (KM12): > 100 µM (inactive)
- GI50 (LOX IMVI): 62.5 µM (inactive)
- GI50 (M14): > 100 µM (inactive)
- GI50 (MCF7): > 100 µM (inactive)
- GI50 (MDA-MB-231): > 100 µM (inactive)
- GI50 (MDA-MB-435): 54.5 µM (inactive)
- GI50 (MDA-N): > 100 µM (inactive)
- GI50 (MOLT-4): 39.4 µM (inactive)
- GI50 (Malme-3M): 70 µM (inactive)
- GI50 (NCI-H226): > 100 µM (inactive)
- GI50 (NCI-H23): 55.6 µM (inactive)
- GI50 (NCI-H460): > 100 µM (inactive)
- GI50 (NCI/ADR-RES): 85.1 µM (inactive)
- GI50 (OVCAR-3): 46.9 µM (inactive)
- GI50 (OVCAR-4): 81.7 µM (inactive)
- GI50 (OVCAR-5): > 100 µM (inactive)
- GI50 (OVCAR-8): > 100 µM (inactive)
- GI50 (PC-3): > 100 µM (inactive)
- GI50 (RPMI-8226): 41.1 µM (inactive)
- GI50 (SF-268): 79.3 µM (inactive)
- GI50 (SF-295): > 100 µM (inactive)
- GI50 (SF-539): > 100 µM (inactive)
- GI50 (SK-MEL-28): 23.8 µM (inactive)
- GI50 (SK-MEL-2): > 100 µM (inactive)
- GI50 (SK-MEL-5): 72.1 µM (inactive)
- GI50 (SK-OV-3): > 100 µM (inactive)
- GI50 (SN12C): 82.6 µM (inactive)
- GI50 (SNB-75): > 100 µM (inactive)
- GI50 (SR): 31.7 µM (inactive)
- GI50 (SW-620): 88.1 µM (inactive)
- GI50 (T47D): > 100 µM (inactive)
- GI50 (TK-10): > 100 µM (inactive)
- GI50 (U-251): 58.1 µM (inactive)
- GI50 (UACC-257): > 100 µM (inactive)
- GI50 (UACC-62): 49.1 µM (inactive)
- GI50 (UO-31): 48.6 µM (inactive)

Structure (SMILES): CC(=O)Nc1ccc(S(=O)(=O)Nc2nnc(S(N)(=O)=O)s2)cc1
- GI50 (786-0): > 100 µM (inactive)
- GI50 (A498): > 100 µM (inactive)
- GI50 (A549): > 100 µM (inactive)
- GI50 (ACHN): > 100 µM (inactive)
- GI50 (BT-549): > 100 µM (inactive)
- GI50 (CAKI-1): > 100 µM (inactive)
- GI50 (COLO 205): > 100 µM (inactive)
- GI50 (DU-145): > 100 µM (inactive)
- GI50 (EKVX): > 100 µM (inactive)
- GI50 (HCC 2998): > 100 µM (inactive)
- GI50 (HCT-116): > 100 µM (inactive)
- GI50 (HCT-15): > 100 µM
- GI50 (HL-60): > 100 µM (inactive)
- GI50 (HOP-92): > 100 µM (inactive)
- GI50 (HT-29): > 100 µM (inactive)
- GI50 (KM12): > 100 µM (inactive)
- GI50 (LOX IMVI): > 100 µM (inactive)
- GI50 (M14): > 100 µM (inactive)
- GI50 (MCF7): > 100 µM (inactive)
- GI50 (MDA-MB-231): > 100 µM (inactive)
- GI50 (MDA-MB-435): > 100 µM (inactive)
- GI50 (MOLT-4): > 100 µM (inactive)
- GI50 (Malme-3M): > 100 µM (inactive)
- GI50 (NCI-H226): > 100 µM (inactive)
- GI50 (NCI-H23): > 100 µM (inactive)
- GI50 (NCI-H460): > 100 µM (inactive)
- GI50 (NCI-H522): > 100 µM (inactive)
- GI50 (NCI/ADR-RES): > 100 µM (inactive)
- GI50 (OVCAR-4): > 100 µM (inactive)
- GI50 (OVCAR-5): > 100 µM (inactive)
- GI50 (RPMI-8226): > 100 µM (inactive)
- GI50 (RXF 393): > 100 µM (inactive)
- GI50 (SF-268): > 100 µM (inactive)
- GI50 (SF-295): > 100 µM (inactive)
- GI50 (SF-539): > 100 µM (inactive)
- GI50 (SK-OV-3): > 100 µM (inactive)
- GI50 (SNB-19): > 100 µM (inactive)
- GI50 (SNB-75): > 100 µM (inactive)
- GI50 (SR): > 100 µM (inactive)
- GI50 (SW-620): > 100 µM (inactive)
- GI50 (T47D): > 100 µM (inactive)
- GI50 (TK-10): > 100 µM (inactive)
- GI50 (U-251): > 100 µM (inactive)
- GI50 (UACC-62): > 100 µM (inactive)
- GI50 (UO-31): > 100 µM (inactive)
